Results as given in PubChem BioAssay (NCI).
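Growth conditions: 96-well plates. Treatment: test compound, 48 hours, 5 concentrations. Analysis: linear interpolation between bracketing concentrations; unreached endpoints set to highest concentration. GI50: concentration for 50% inhibition of growth. TGI: concentration producing complete growth inhibition.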

How the values were obtained:
Assay in all cases: NCI anticancer screen, dose series, 48 h
SK-MEL-28 melanoma = test system: SK-MEL-28 melanoma
KM12 colon = test system: KM12 colon
NCI-H460 lung = test system: NCI-H460 lung
NCI-H23 lung = test system: NCI-H23 lung
HCT-116 colon = test system: HCT-116 colon
A498 renal = test system: A498 renal
CCRF-CEM leukemia = test system: CCRF-CEM leukemia
HT29 colon = test system: HT29 colon
OVCAR-3 ovarian = test system: OVCAR-3 ovarian
HL-60(TB) leukemia = test system: HL-60(TB) leukemia
MOLT-4 leukemia = test system: MOLT-4 leukemia
K-562 leukemia = test system: K-562 leukemia
SNB-75 CNS = test system: SNB-75 CNS
U251 CNS = test system: U251 CNS
PC-3 prostate = test system: PC-3 prostate
RXF 393 renal = test system: RXF 393 renal
RPMI-8226 leukemia = test system: RPMI-8226 leukemia
SK-MEL-5 melanoma = test system: SK-MEL-5 melanoma
SK-MEL-2 melanoma = test system: SK-MEL-2 melanoma
SF-268 CNS = test system: SF-268 CNS
HOP-92 NSCLC = test system: HOP-92 NSCLC
SR leukemia = test system: SR leukemia
UO-31 renal = test system: UO-31 renal
SK-OV-3 ovarian = test system: SK-OV-3 ovarian
UACC-257 melanoma = test system: UACC-257 melanoma
T-47D breast = test system: T-47D breast
SF-539 CNS = test system: SF-539 CNS
SN12C renal = test system: SN12C renal
MDA-MB-435 = test system: MDA-MB-435
M14 melanoma = test system: M14 melanoma
UACC-62 melanoma = test system: UACC-62 melanoma
OVCAR-5 ovarian = test system: OVCAR-5 ovarian
A549 NSCLC = test system: A549 NSCLC
HOP-62 NSCLC = test system: HOP-62 NSCLC
SW-620 colon = test system: SW-620 colon
EKVX NSCLC = test system: EKVX NSCLC
786-0 renal = test system: 786-0 renal
MDA-MB-231 breast = test system: MDA-MB-231 breast
DU-145 prostate = test system: DU-145 prostate
MALME-3M melanoma = test system: MALME-3M melanoma
SNB-19 CNS = test system: SNB-19 CNS
NCI-H522 lung = test system: NCI-H522 lung
ACHN renal = test system: ACHN renal
OVCAR-8 ovarian = test system: OVCAR-8 ovarian
COLO 205 colon = test system: COLO 205 colon
TK-10 renal = test system: TK-10 renal
BT-549 breast = test system: BT-549 breast
CAKI-1 renal = test system: CAKI-1 renal
HCC-2998 colon = test system: HCC-2998 colon

SMILES: CCCCCCCCCCCCCCCCCC1=NCCN1CCOC1=C(Cl)C(=O)c2ccccc2C1=O
- GI50 (SK-MEL-28 melanoma): 3.31 µM
- TGI (SK-MEL-28 melanoma): 9.05 µM
- GI50 (KM12 colon): 1.91 µM
- TGI (KM12 colon): 3.61 µM
- GI50 (NCI-H460 lung): 3.33 µM
- TGI (NCI-H460 lung): 16.1 µM
- GI50 (NCI-H23 lung): 2.5 µM
- TGI (NCI-H23 lung): 7.73 µM
- GI50 (HCT-116 colon): 1.82 µM
- TGI (HCT-116 colon): 3.43 µM
- GI50 (A498 renal): 3.92 µM
- TGI (A498 renal): 14.7 µM
- GI50 (CCRF-CEM leukemia): 0.527 µM
- TGI (CCRF-CEM leukemia): 7.17 µM
- GI50 (HT29 colon): 2.58 µM
- TGI (HT29 colon): 6.13 µM
- GI50 (OVCAR-3 ovarian): 1.85 µM
- TGI (OVCAR-3 ovarian): 3.34 µM
- GI50 (HL-60(TB) leukemia): 1.34 µM
- TGI (HL-60(TB) leukemia): 6 µM
- GI50 (MOLT-4 leukemia): 0.747 µM
- TGI (MOLT-4 leukemia): 3.8 µM
- GI50 (K-562 leukemia): 0.828 µM
- TGI (K-562 leukemia): 4.2 µM
- GI50 (SNB-75 CNS): 2.2 µM
- TGI (SNB-75 CNS): 8.54 µM
- GI50 (U251 CNS): 1.87 µM
- TGI (U251 CNS): 3.67 µM
- GI50 (PC-3 prostate): 1.85 µM
- TGI (PC-3 prostate): 4.27 µM
- GI50 (RXF 393 renal): 1.79 µM
- TGI (RXF 393 renal): 3.2 µM
- GI50 (RPMI-8226 leukemia): 2.17 µM
- TGI (RPMI-8226 leukemia): 5.28 µM
- GI50 (SK-MEL-5 melanoma): 2.36 µM
- TGI (SK-MEL-5 melanoma): 6.75 µM
- GI50 (SK-MEL-2 melanoma): 2.39 µM
- TGI (SK-MEL-2 melanoma): 5.08 µM
- GI50 (SF-268 CNS): 2.08 µM
- TGI (SF-268 CNS): 4.61 µM
- GI50 (HOP-92 NSCLC): 1.78 µM
- TGI (HOP-92 NSCLC): 3.4 µM
- GI50 (SR leukemia): 2.07 µM
- TGI (SR leukemia): 4.72 µM
- GI50 (UO-31 renal): 1.37 µM
- TGI (UO-31 renal): 2.77 µM
- GI50 (SK-OV-3 ovarian): 1.93 µM
- TGI (SK-OV-3 ovarian): 5.11 µM
- GI50 (UACC-257 melanoma): 1.83 µM
- TGI (UACC-257 melanoma): 3.3 µM
- GI50 (T-47D breast): 1.86 µM
- TGI (T-47D breast): 4.43 µM
- GI50 (SF-539 CNS): 1.83 µM
- TGI (SF-539 CNS): 3.78 µM
- GI50 (SN12C renal): 3.18 µM
- TGI (SN12C renal): 9.47 µM
- GI50 (MDA-MB-435): 2.05 µM
- TGI (MDA-MB-435): 4.02 µM
- GI50 (M14 melanoma): 1.84 µM
- TGI (M14 melanoma): 3.39 µM
- GI50 (UACC-62 melanoma): 2.12 µM
- TGI (UACC-62 melanoma): 4.99 µM
- GI50 (OVCAR-5 ovarian): 2.29 µM
- TGI (OVCAR-5 ovarian): 5.27 µM
- GI50 (A549 NSCLC): 4.48 µM
- TGI (A549 NSCLC): 22.9 µM
- GI50 (HOP-62 NSCLC): 1.77 µM
- TGI (HOP-62 NSCLC): 3.27 µM
- GI50 (SW-620 colon): 1.73 µM
- TGI (SW-620 colon): 3.41 µM
- GI50 (EKVX NSCLC): 1.46 µM
- TGI (EKVX NSCLC): 3.32 µM
- GI50 (786-0 renal): 2.19 µM
- TGI (786-0 renal): 4.09 µM
- GI50 (MDA-MB-231 breast): 2.05 µM
- TGI (MDA-MB-231 breast): 5.03 µM
- GI50 (DU-145 prostate): 6.09 µM
- TGI (DU-145 prostate): 18.1 µM
- GI50 (MALME-3M melanoma): 1.95 µM
- TGI (MALME-3M melanoma): 4.13 µM
- GI50 (SNB-19 CNS): 3.56 µM
- TGI (SNB-19 CNS): 11.5 µM
- GI50 (NCI-H522 lung): 1.79 µM
- TGI (NCI-H522 lung): 3.38 µM
- GI50 (ACHN renal): 1.58 µM
- TGI (ACHN renal): 3.01 µM
- GI50 (OVCAR-8 ovarian): 1.95 µM
- TGI (OVCAR-8 ovarian): 4.43 µM
- GI50 (COLO 205 colon): 1.67 µM
- TGI (COLO 205 colon): 3.09 µM
- GI50 (TK-10 renal): 2.19 µM
- TGI (TK-10 renal): 3.76 µM
- GI50 (BT-549 breast): 2.46 µM
- TGI (BT-549 breast): 6.12 µM
- GI50 (CAKI-1 renal): 1.57 µM
- TGI (CAKI-1 renal): 2.98 µM
- GI50 (HCC-2998 colon): 3.51 µM
- TGI (HCC-2998 colon): 12.3 µM
